{
  "source": "the OligoGym collection",
  "target": "SOD1",
  "settings": "ASO",
  "note": "Several values for one entry are separate records, joined by “and”; a condition that tells them apart may be missing. Equal values may be shown once. After the bases stand the sugars from the 5' end (letter, count) and the backbone: PS all phosphorothioate, else s phosphorothioate and o phosphodiester by linkage. Methylation of C is not given here. e = 2'-O-(2-methoxyethyl) (MOE); k = constrained ethyl (cEt); d = 2'-deoxy (DNA)",
  "data": [
    {"sequence": "AAACTATACAAATCTTC (sugars e3 k2 d7 k2 e3, PS)", "values": [
      {"measurement": "target mRNA inhibition", "setting": "HepG2, 3 µM", "result": 26, "unit": "%"}
    ]},
    {"sequence": "AAATCTTCCAAGTGATC (sugars e2 k2 d9 k2 e2, PS)", "values": [
      {"measurement": "target mRNA inhibition", "setting": "HepG2, 5 µM", "result": 48, "unit": "%"}
    ]},
    {"sequence": "AAATTCTGACAAGTTTA (sugars e3 k2 d7 k2 e3, PS)", "values": [
      {"measurement": "target mRNA inhibition", "setting": "HepG2, 3 µM", "result": 21, "unit": "%"}
    ]},
    {"sequence": "AACATGGAATCCATGCA (sugars e3 k2 d7 k2 e3, PS)", "values": [
      {"measurement": "target mRNA inhibition", "setting": "HepG2, 3 µM", "result": 10, "unit": "%"}
    ]},
    {"sequence": "AAGTCTCCAACATGCCTCTC (sugars e5 d10 e5, PS)", "values": [
      {"measurement": "target mRNA inhibition", "setting": "HepG2, 5 µM", "result": "20% and 6%"}
    ]},
    {"sequence": "AAGTGCCATACAGGGTT (sugars e2 k2 d8 k2 e3, PS)", "values": [
      {"measurement": "target mRNA inhibition", "setting": "HepG2, 5 µM", "result": 15, "unit": "%"}
    ]},
    {"sequence": "AATACCCATCTGTGATT (sugars e3 k2 d7 k2 e3, PS)", "values": [
      {"measurement": "target mRNA inhibition", "setting": "HepG2, 3 µM", "result": 7, "unit": "%"}
    ]},
    {"sequence": "AATCAGTTTCTCACTAC (sugars e2 k2 d8 k2 e3, PS)", "values": [
      {"measurement": "target mRNA inhibition", "setting": "HepG2, 5 µM", "result": 34, "unit": "%"}
    ]},
    {"sequence": "AATCCATGCAGGCCTTC (sugars e3 k2 d7 k2 e3, PS)", "values": [
      {"measurement": "target mRNA inhibition", "setting": "HepG2, 3 µM", "result": 13, "unit": "%"}
    ]},
    {"sequence": "AATCTTCCAAGTGATCA (sugars e3 k2 d7 k2 e3, PS)", "values": [
      {"measurement": "target mRNA inhibition", "setting": "HepG2, 3 µM", "result": 23, "unit": "%"}
    ]},
    {"sequence": "AATGTTTATCAGGATA (sugars ekddddddddekekee, linkages s1 o1 s8 o3 s2)", "values": [
      {"measurement": "target mRNA inhibition", "setting": "A431, 0.12 µM", "result": 10, "unit": "%"},
      {"measurement": "target mRNA inhibition", "setting": "A431, 0.6 µM", "result": 30, "unit": "%"},
      {"measurement": "target mRNA inhibition", "setting": "A431, 3 µM", "result": 51, "unit": "%"},
      {"measurement": "target mRNA inhibition", "setting": "A431, 15 µM", "result": 72, "unit": "%"}
    ]},
    {"sequence": "AATGTTTATCAGGATAC (sugars e2 k2 d8 k2 e3, PS)", "values": [
      {"measurement": "target mRNA inhibition", "setting": "HepG2, 0.1875 µM", "result": 51, "unit": "%"},
      {"measurement": "target mRNA inhibition", "setting": "HepG2, 0.75 µM", "result": 79, "unit": "%"},
      {"measurement": "target mRNA inhibition", "setting": "HepG2, 3 µM", "result": 92, "unit": "%"},
      {"measurement": "target mRNA inhibition", "setting": "HepG2, 4 µM", "result": 89, "unit": "%"},
      {"measurement": "target mRNA inhibition", "setting": "HepG2, 12 µM", "result": 96, "unit": "%"}
    ]},
    {"sequence": "AATGTTTATCAGGATAC (sugars e2 k2 d9 k2 e2, PS)", "values": [
      {"measurement": "target mRNA inhibition", "setting": "HepG2, 0.1875 µM", "result": 43, "unit": "%"},
      {"measurement": "target mRNA inhibition", "setting": "HepG2, 0.75 µM", "result": 75, "unit": "%"},
      {"measurement": "target mRNA inhibition", "setting": "HepG2, 3 µM", "result": 91, "unit": "%"},
      {"measurement": "target mRNA inhibition", "setting": "HepG2, 4 µM", "result": 90, "unit": "%"},
      {"measurement": "target mRNA inhibition", "setting": "HepG2, 12 µM", "result": 97, "unit": "%"}
    ]},
    {"sequence": "AATGTTTATCAGGATACATT (sugars e5 d10 e5, PS)", "values": [
      {"measurement": "target mRNA inhibition", "setting": "HepG2, 5 µM", "result": 54, "unit": "%"}
    ]},
    {"sequence": "AATGTTTATTGGGCGAT (sugars e2 k2 d8 k2 e3, PS)", "values": [
      {"measurement": "target mRNA inhibition", "setting": "HepG2, 4 µM", "result": 61, "unit": "%"}
    ]},
    {"sequence": "AATGTTTATTGGGCGAT (sugars e2 k2 d9 k2 e2, PS)", "values": [
      {"measurement": "target mRNA inhibition", "setting": "HepG2, 4 µM", "result": 64, "unit": "%"}
    ]},
    {"sequence": "AATTACACCACAAGCCA (sugars e2 k2 d9 k2 e2, PS)", "values": [
      {"measurement": "target mRNA inhibition", "setting": "HepG2, 4 µM", "result": 56, "unit": "%"}
    ]},
    {"sequence": "ACAAGTTTAATACCCAT (sugars e2 k2 d8 k2 e3, PS)", "values": [
      {"measurement": "target mRNA inhibition", "setting": "HepG2, 5 µM", "result": 58, "unit": "%"}
    ]},
    {"sequence": "ACACCACAAGCCAAACG (sugars e2 k2 d8 k2 e3, PS)", "values": [
      {"measurement": "target mRNA inhibition", "setting": "HepG2, 4 µM", "result": 27, "unit": "%"}
    ]},
    {"sequence": "ACACCACAAGCCAAACG (sugars e2 k2 d9 k2 e2, PS)", "values": [
      {"measurement": "target mRNA inhibition", "setting": "HepG2, 4 µM", "result": 45, "unit": "%"}
    ]},
    {"sequence": "ACACTTTTAAGATTACAGTG (sugars e5 d10 e5, PS)", "values": [
      {"measurement": "target mRNA inhibition", "setting": "HepG2, 5 µM", "result": 15, "unit": "%"}
    ]},
    {"sequence": "ACAGCTAGCAGGATAAC (sugars e3 k2 d7 k2 e3, PS)", "values": [
      {"measurement": "target mRNA inhibition", "setting": "HepG2, 3 µM", "result": 20, "unit": "%"}
    ]},
    {"sequence": "ACAGGGTTTTTATTCAC (sugars e2 k2 d9 k2 e2, PS)", "values": [
      {"measurement": "target mRNA inhibition", "setting": "HepG2, 5 µM", "result": 47, "unit": "%"}
    ]},
    {"sequence": "ACAGTGTTTAATGTTT (sugars kekeddddddddekek, linkages s1 o3 s8 o1 s2)", "values": [
      {"measurement": "target mRNA inhibition", "setting": "A431, 0.12 µM", "result": 0, "unit": "%"},
      {"measurement": "target mRNA inhibition", "setting": "A431, 0.6 µM", "result": 0, "unit": "%"},
      {"measurement": "target mRNA inhibition", "setting": "A431, 3 µM", "result": 0, "unit": "%"},
      {"measurement": "target mRNA inhibition", "setting": "A431, 15 µM", "result": 6, "unit": "%"},
      {"measurement": "target mRNA inhibition", "setting": "HepG2, 0.222 µM", "result": 55, "unit": "%"},
      {"measurement": "target mRNA inhibition", "setting": "HepG2, 0.667 µM", "result": 68, "unit": "%"},
      {"measurement": "target mRNA inhibition", "setting": "HepG2, 2 µM", "result": 78, "unit": "%"},
      {"measurement": "target mRNA inhibition", "setting": "HepG2, 6 µM", "result": 88, "unit": "%"}
    ]},
    {"sequence": "ACAGTGTTTAATGTTTA (sugars e2 k2 d8 k2 e3, linkages s1 o2 s9 o2 s2)", "values": [
      {"measurement": "target mRNA inhibition", "setting": "A431, 0.12 µM", "result": 17, "unit": "%"},
      {"measurement": "target mRNA inhibition", "setting": "A431, 0.6 µM", "result": 8, "unit": "%"},
      {"measurement": "target mRNA inhibition", "setting": "A431, 3 µM", "result": 26, "unit": "%"},
      {"measurement": "target mRNA inhibition", "setting": "A431, 15 µM", "result": 37, "unit": "%"},
      {"measurement": "target mRNA inhibition", "setting": "HepG2, 0.222 µM", "result": 61, "unit": "%"},
      {"measurement": "target mRNA inhibition", "setting": "HepG2, 0.667 µM", "result": 73, "unit": "%"},
      {"measurement": "target mRNA inhibition", "setting": "HepG2, 2 µM", "result": 91, "unit": "%"},
      {"measurement": "target mRNA inhibition", "setting": "HepG2, 6 µM", "result": 88, "unit": "%"}
    ]},
    {"sequence": "ACATCCAAGGGAATGTT (sugars e3 k2 d7 k2 e3, PS)", "values": [
      {"measurement": "target mRNA inhibition", "setting": "HepG2, 3 µM", "result": 30, "unit": "%"}
    ]},
    {"sequence": "ACATTTCTACAGCTAG (sugars ekddddddddekekee, linkages s1 o1 s8 o3 s2)", "values": [
      {"measurement": "target mRNA inhibition", "setting": "A431, 0.12 µM", "result": 1, "unit": "%"},
      {"measurement": "target mRNA inhibition", "setting": "A431, 0.6 µM", "result": 27, "unit": "%"},
      {"measurement": "target mRNA inhibition", "setting": "A431, 3 µM", "result": 32, "unit": "%"},
      {"measurement": "target mRNA inhibition", "setting": "A431, 15 µM", "result": 47, "unit": "%"}
    ]},
    {"sequence": "ACCACAAGCCAAACGACTTC (sugars e5 d10 e5, PS)", "values": [
      {"measurement": "target mRNA inhibition", "setting": "HepG2, 5 µM", "result": 28, "unit": "%"}
    ]},
    {"sequence": "ACCTTCACTGGTCCATT (sugars e3 k2 d7 k2 e3, PS)", "values": [
      {"measurement": "target mRNA inhibition", "setting": "HepG2, 3 µM", "result": 44, "unit": "%"}
    ]},
    {"sequence": "ACTGGGCCGTCGCCCTTCAG (sugars e5 d10 e5, PS)", "values": [
      {"measurement": "target mRNA inhibition", "setting": "HepG2, 4 µM", "result": 26, "unit": "%"}
    ]},
    {"sequence": "ACTTTATAGGCCAGACCTCC (sugars e5 d10 e5, PS)", "values": [
      {"measurement": "target mRNA inhibition", "setting": "HepG2, 4 µM", "result": 64, "unit": "%"}
    ]},
    {"sequence": "ACTTTCCTTCTGCTCGA (sugars e3 k2 d7 k2 e3, PS)", "values": [
      {"measurement": "target mRNA inhibition", "setting": "HepG2, 3 µM", "result": 0, "unit": "%"}
    ]},
    {"sequence": "ACTTTCTTCATTTCCAC (sugars e3 k2 d7 k2 e3, PS)", "values": [
      {"measurement": "target mRNA inhibition", "setting": "HepG2, 3 µM", "result": 15, "unit": "%"}
    ]},
    {"sequence": "AGAAATTCTGACAAGTT (sugars e3 k2 d7 k2 e3, PS)", "values": [
      {"measurement": "target mRNA inhibition", "setting": "HepG2, 3 µM", "result": 8, "unit": "%"}
    ]},
    {"sequence": "AGACTACATCCAAGGGA (sugars e3 k2 d7 k2 e3, PS)", "values": [
      {"measurement": "target mRNA inhibition", "setting": "HepG2, 3 µM", "result": 39, "unit": "%"}
    ]},
    {"sequence": "AGAGGATTAAAGTGAGG (sugars e3 k2 d7 k2 e3, PS)", "values": [
      {"measurement": "target mRNA inhibition", "setting": "HepG2, 3 µM", "result": 16, "unit": "%"}
    ]},
    {"sequence": "AGCAGTCACATTGCCCA (sugars e3 k2 d7 k2 e3, PS)", "values": [
      {"measurement": "target mRNA inhibition", "setting": "HepG2, 3 µM", "result": 18, "unit": "%"}
    ]},
    {"sequence": "AGCTAGCAGGATAACAG (sugars e2 k2 d9 k2 e2, PS)", "values": [
      {"measurement": "target mRNA inhibition", "setting": "HepG2, 4 µM", "result": 54, "unit": "%"}
    ]}
  ]
}
